The results in this text go back to patent US20120129870A1, “PIPERAZINYL DERIVATIVES USEFUL AS MODULATORS OF THE NEUROPEPTIDE Y2 RECEPTOR” (priority 2007, published 2012).

Each structure is given as a SMILES string.

In assay [1] the target is T1, NPY Y2 receptor (Homo sapiens, UniProt P49146).
T1 sequence (P49146 1-381): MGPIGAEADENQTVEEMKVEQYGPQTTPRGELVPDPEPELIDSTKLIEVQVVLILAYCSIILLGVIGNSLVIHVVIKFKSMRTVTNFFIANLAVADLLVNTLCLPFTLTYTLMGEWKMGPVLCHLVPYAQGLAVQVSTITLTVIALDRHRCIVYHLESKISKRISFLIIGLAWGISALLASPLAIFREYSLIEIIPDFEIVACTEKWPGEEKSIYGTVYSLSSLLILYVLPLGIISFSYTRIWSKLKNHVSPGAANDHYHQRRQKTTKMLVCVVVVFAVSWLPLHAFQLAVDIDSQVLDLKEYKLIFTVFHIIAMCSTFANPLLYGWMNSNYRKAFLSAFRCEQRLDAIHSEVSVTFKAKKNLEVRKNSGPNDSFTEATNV
As to the kind of experiment: Neuropeptide Y2 radioligand binding assay ([125I]PYY, KAN-Ts membranes). Also noted: endogenous in cells; host or cells: KAN-Ts cells (membrane preparation). As to conditions: for IC50: KAN-Ts membranes endogenously expressing Y2, [125I]PYY (80 pM), 1 h at rt; for Ki: apparent Ki=IC50/(1+C/KD). In a few lines: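 Membranes from KAN-Ts cells with endogenous Y2 receptors, incubated with 80 pM [125I]PYY ± compound for 1 h at rt in HEPES/NaCl/CaCl2/MgSO4 buffer, then filtered and counted. Nonspecific binding defined with […]. IC50 from sigmoidal fit; Ki = IC50/(1+C/KD).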

Assay [2] deals with T1, NPY Y2 receptor. As to the kind of experiment: Neuropeptide Y2 pKB assay (FLIPR, KAN-Ts cells stably expressing chimeric G proteins). The class given is cell-based. Particulars: apparent pKB, modified Cheng-Prusoff correction. The procedure:
The assay was performed using the fluorimetric imaging plate reader (FLIPR) format as described in Dautzenberg, F. M., Biochemical Pharmacology 2005, 69, 1493.
KAN-Ts cells stably expressing chimeric G proteins were seeded at a density of 100,000 cells into poly-d-lysine coated 384-well blackwall, clear-bottom microtiter plates (Corning, N.Y.). One day later, the medium was removed and 50 μl loading medium DMEM high glucose, without serum, supplemented with 10 mM HEPES-acid, 0.1% BSA, 5 mM probenecid and 2 μM Fluo-3AM was added. Cells were loaded for 1 h at 37° C., washed twice with 50 μl assay buffer (5 mM HEPES-acid, 140 mM NaCl, 1 mM MgCl2, 5 mM KCl, 10 mM glucose) and then 30 μl assay buffer was added. Cells were further pre-incubated at room temperature before adding agonists or agonists plus antagonists in 20 μl assay buffer and then measured on a T-channel fluorometric imaging plate reader (FLIPR, Molecular Devices, Sunnyvale, Calif.). Antagonistic potency values were converted to apparent pKB values using a modified Cheng-Prusoff correction. Apparent pKB was calculated as pKB=−log IC50/1+[conc agonist/EC50].

One may read the IC50 as the concentration that inhibits the measured activity by half.

On to `CCC(CC)C(=O)Nc1ccc(N2CCN(C(c3ccccc3)c3noc(CF)n3)CC2)c(F)c1` (centres unmarked) [Compound 235, 2-Ethyl-N-(3-fluoro-4-{4-[(5-fluoromethyl-[1,2,4]-oxadiazol-3-yl)-phenyl-methyl]-piperazin-1-yl}-phenyl)-butyramide], for which the IC50 on NPY Y2 receptor [1] came out at 30 nM. Besides, the Kb at NPY Y2 receptor [2] was 63.1 nM.
The matching figures for `CCc1nc(C(c2ccccc2)N2CCN(c3ccc(NC(=O)C(CC)CC)cc3F)CC2)no1` (centres unmarked) [Compound 236, 2-Ethyl-N-(4-{4-[(5-ethyl-[1,2,4]-oxadiazol-3-yl)-phenyl-methyl]-piperazin-1-yl}-3-fluoro-phenyl)-butyramide]: 23 nM and 15.8 nM.
With `CCC(CC)C(=O)Nc1ccc(N2CCN(C(c3ccccc3)c3ncco3)CC2)c(Br)c1` (centres unmarked) [Compound 237, N-{3-Bromo-4-[4-(oxazol-2-yl-phenyl-methyl)-piperazin-1-yl]-phenyl}-2-ethyl-butyramide], the IC50 at NPY Y2 receptor [1] is 16 nM. Moreover, the Kb at NPY Y2 receptor [2] is 63.1 nM.
For `CCC(CC)C(=O)Nc1ccc(N2CCN(C(c3ccccc3)c3noc(-c4cccnc4)n3)CC2)c(F)c1` (centres unmarked) [Compound 238, 2-Ethyl-N-(3-fluoro-4-{4-[phenyl-(5-pyridin-3-yl-[1,2,4]-oxadiazol-3-yl)-methyl]-piperazin-1-yl}-phenyl)-butyramide], in that order: 25 nM and 31.6 nM.
The matching figures for `CCC(CC)C(=O)Nc1ccc(N2CCN(C(c3ccccc3)c3noc(C)n3)CC2)c(F)c1` (centres unmarked) [Compound 239, 2-Ethyl-N-(3-fluoro-4-{4-[(5-methyl-[1,2,4]-oxadiazol-3-yl)-phenyl-methyl]-piperazin-1-yl}-phenyl)-butyramide]: 13 nM and 12.6 nM.
For `CCC(CC)C(=O)Nc1ccc(N2CCN(C(c3ccccc3)c3noc(-c4ccccc4)n3)CC2)c(F)c1` (centres unmarked) [Compound 240, 2-Ethyl-N-(3-fluoro-4-{4-[phenyl-(5-phenyl-[1,2,4]-oxadiazol-3-yl)-methyl]-piperazin-1-yl}-phenyl)-butyramide], in that order: 39 nM and 126 nM.
On NPY Y2 receptor [1], `CCC(CC)C(=O)Nc1cc(F)c(N2CCN(C(c3ccccc3)c3ncco3)CC2)c(F)c1` (centres unmarked) [Compound 243, N-{3,5-Difluoro-4-[4-(oxazol-2-yl-phenyl-methyl)-piperazin-1-yl]-phenyl}-2-ethyl-butyramide] gave an IC50 of 50 nM. Further, the Kb at NPY Y2 receptor [2] is 126 nM.
As to `Cc1noc(C)c1C(=O)Nc1ccc(N2CCN(C(c3ccccc3)c3ccccc3)CC2)c(C#N)c1` [Compound 302, N-{3-Cyano-4-[4-(diphenylmethyl)piperazin-1-yl]phenyl}-3,5-dimethylisoxazole-4-carboxamide], at NPY Y2 receptor [1], the Ki was 14 nM. Further, the Kb on NPY Y2 receptor [2] is 501 nM.
The matching figures for `CCC(CC)C(=O)Nc1ccc(N2CCN(C(c3ccccc3)c3ccccc3)CC2)c(C#N)c1` [Compound 304, N-[4-(4-Benzhydryl-piperazin-1-yl)-3-cyano-phenyl]-2-ethyl-butyramide]: 4.7 nM and 501 nM.
As for `CCC(CC)C(=O)Nc1ccc(N2CCN(C(c3ccccc3)c3ccccc3C)CC2)c(C#N)c1` (centres unmarked) [Compound 305, N-{3-Cyano-4-[4-(phenyl-o-tolyl-methyl)-piperazin-1-yl]-phenyl}-2-ethyl-butyramide], the Ki at NPY Y2 receptor [1] turned out to be 36 nM. Further, at NPY Y2 receptor [2], the Kb was 316 nM.
With `CCC(CC)C(=O)Nc1ccc(N2CCN(C(c3ccccc3)c3ccncc3)CC2)c(C#N)c1` (centres unmarked) [Compound 315, N-{3-Cyano-4-[4-(phenyl-pyridin-4-yl-methyl)-piperazin-1-yl]-phenyl}-2-ethyl-butyramide], the Ki at NPY Y2 receptor [1] worked out at 4.4 nM. The Kb on NPY Y2 receptor [2] was 50.1 nM.
As to `CCC(CC)C(=O)Nc1ccc(N2CCN(C(c3ccccc3)c3cccnc3)CC2)c(C#N)c1` (centres unmarked) [Compound 317, N-{3-Cyano-4-[4-(phenyl-pyridin-3-yl-methyl)-piperazin-1-yl]-phenyl}-2-ethyl-butyramide], on NPY Y2 receptor [1], the Ki worked out at 4.3 nM. Besides, the Kb on NPY Y2 receptor [2] was 31.6 nM.
Consider `N#Cc1cc(NC(=O)C2CC2)ccc1N1CCN(C(c2ccccc2)c2cccnc2)CC1` (centres unmarked) [Compound 321, Cyclopropanecarboxylic acid {3-cyano-4-[4-(phenyl-pyridin-3-yl-methyl)-piperazin-1-yl]-phenyl}-amide], for which the Ki on NPY Y2 receptor [1] came out at 11 nM. For the same molecule, the Kb on NPY Y2 receptor [2] was 31.6 nM.
